Values of other authors as cited in patent publication US10045962B2 (priority 2014, dated 2018).

Key:
reuptake of serotonin = settings: pre-clinical tests; cited from earlier work
[1] = system: reuptake of norepinephrine; settings: pre-clinical tests; cited from earlier work
reuptake of dopamine = settings: pre-clinical tests; cited from earlier work
dopaminergic receptors = settings: in vitro tests; cited from earlier work
adrenergic receptors = settings: in vitro tests; cited from earlier work
cholinergic receptors = settings: in vitro tests; cited from earlier work
histaminergic receptors = settings: in vitro tests; cited from earlier work
monoamine oxidase = settings: cited from earlier work

SMILES: CNCC[C@H](Oc1cccc2ccccc12)c1cccs1 [duloxetine]
- block of reuptake of serotonin (reuptake of serotonin): effectively block
- block of reuptake of norepinephrine [1]: effectively block
- block of reuptake of dopamine (reuptake of dopamine): merely slightly block
- affinity to dopaminergic receptors (dopaminergic receptors): no significant affinity
- affinity to adrenergic receptors (adrenergic receptors): no significant affinity
- affinity to cholinergic receptors (cholinergic receptors): no significant affinity
- affinity to histaminergic receptors (histaminergic receptors): no significant affinity
- inhibition of monoamine oxidase (monoamine oxidase): does not inhibit
